# According to patent publication US12234232B2, “Aromatic heterocyclic compound with kinase inhibitory activity” (SHANGHAI ENNOVABIO PHARMACEUTICALS CO., LTD., priority 2018, dated 2025):
# Key:
# [1] = target: T1, JAK3 protein (Homo sapiens, UniProt P52333); assay: In vitro JAK3 kinase activity assay (HTRF kinEASE TK); format: biochemical; conditions: 0.75 μM ATP, 25 minutes, room temperature; read-out: IC50 JAK3 (enzyme activity assay)
# T1 construct: purchased Carna Biosciences
# T1 sequence (P52333 1-1124): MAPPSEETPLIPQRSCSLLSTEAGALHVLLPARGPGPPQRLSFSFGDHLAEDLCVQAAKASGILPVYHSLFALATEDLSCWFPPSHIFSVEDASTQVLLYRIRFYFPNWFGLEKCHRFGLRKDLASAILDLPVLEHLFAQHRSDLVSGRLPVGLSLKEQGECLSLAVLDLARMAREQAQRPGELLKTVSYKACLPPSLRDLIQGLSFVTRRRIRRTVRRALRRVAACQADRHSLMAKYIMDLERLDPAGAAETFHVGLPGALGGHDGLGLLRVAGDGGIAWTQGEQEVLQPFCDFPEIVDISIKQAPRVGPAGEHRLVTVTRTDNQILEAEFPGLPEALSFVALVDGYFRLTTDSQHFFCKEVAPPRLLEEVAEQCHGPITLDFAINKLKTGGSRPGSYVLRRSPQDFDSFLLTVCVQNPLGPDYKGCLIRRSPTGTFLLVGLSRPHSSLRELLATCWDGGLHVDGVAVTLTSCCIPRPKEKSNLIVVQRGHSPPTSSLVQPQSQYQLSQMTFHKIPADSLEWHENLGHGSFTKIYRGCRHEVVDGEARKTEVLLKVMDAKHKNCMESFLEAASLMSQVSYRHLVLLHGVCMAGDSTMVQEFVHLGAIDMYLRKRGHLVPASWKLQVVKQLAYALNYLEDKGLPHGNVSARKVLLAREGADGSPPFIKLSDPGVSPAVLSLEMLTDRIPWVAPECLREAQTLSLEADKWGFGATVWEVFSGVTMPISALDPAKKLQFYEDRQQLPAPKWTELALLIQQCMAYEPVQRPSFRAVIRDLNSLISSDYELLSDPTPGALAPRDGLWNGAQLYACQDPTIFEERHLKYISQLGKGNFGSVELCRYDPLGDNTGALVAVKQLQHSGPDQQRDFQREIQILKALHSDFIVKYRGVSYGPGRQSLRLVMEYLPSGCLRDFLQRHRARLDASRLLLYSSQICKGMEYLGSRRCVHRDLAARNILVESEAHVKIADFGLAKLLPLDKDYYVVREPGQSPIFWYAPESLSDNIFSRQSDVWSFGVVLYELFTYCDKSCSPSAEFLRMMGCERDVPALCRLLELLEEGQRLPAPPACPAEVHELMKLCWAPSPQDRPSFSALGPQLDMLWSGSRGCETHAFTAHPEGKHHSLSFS
# Method: (§1) Recombinant human JAK1 protein was purchased from Thermo Fisher. JAK2 and JAK3 proteins were purchased from Carna Biosciences. HTRF kinEASE TK kit was purchased from Cisbio Bioassays. BioTek microplate reader Synergy Neo 2 was used to read the plate.
# (§2) The test compounds were of 4-fold serial dilution, and the final concentration ranged from 10 μM to 0.04 nM in duplicates for each concentration. The concentration of DMSO in the reaction system was 1%.
# (§3) The reaction included 0.004 ng/gi JAK 3 protein kinase, 1 μM TK Substrate-biotin peptide substrate, 0.75 μM ATP, 1× enzymatic buffer, 5 mM MgCl2, and 1 mM DTT. The detection plate was White Proxiplate 384-Plus plate (PerkinElmer), and the mixture (10 μl) was reacted at room temperature for 25 minutes.
# (§4) Reaction detection: 10 μl of detection reagent was added to the reaction plate containing final concentration of 0.125 μM of SA-XL665 and 5 μl 1×TK-Antibody. The mixture was incubated overnight at room temperature. The plate was read using Synergy Neo 2.
# (§5) Data analysis: 665/620 Ratio was converted into inhibition rate (%) through the following formula: inhibition rate (%)=(Ratiomax−Ratiotest)/(Ratiomax−Ratiomin)×100%. Ratiomax is a positive control without detection compound, Ratiomin is a negative control without detection compound and kinase, Ratiotest is the detection value of each concentration of different compounds. 4 parameter curve fitting was performed to measure the IC50 (nM) values. The details are shown in, Table 1.
# [2] = target: T2, JAK1 (Homo sapiens, UniProt P23458); assay: In vitro JAK1 kinase activity assay (HTRF kinEASE TK); format: biochemical; set-up: purchased Thermo Fisher; conditions: 1.1 μM ATP, 60 minutes, room temperature; read-out: IC50 JAK1 (enzyme activity assay)
# T2 sequence (P23458 whole entry): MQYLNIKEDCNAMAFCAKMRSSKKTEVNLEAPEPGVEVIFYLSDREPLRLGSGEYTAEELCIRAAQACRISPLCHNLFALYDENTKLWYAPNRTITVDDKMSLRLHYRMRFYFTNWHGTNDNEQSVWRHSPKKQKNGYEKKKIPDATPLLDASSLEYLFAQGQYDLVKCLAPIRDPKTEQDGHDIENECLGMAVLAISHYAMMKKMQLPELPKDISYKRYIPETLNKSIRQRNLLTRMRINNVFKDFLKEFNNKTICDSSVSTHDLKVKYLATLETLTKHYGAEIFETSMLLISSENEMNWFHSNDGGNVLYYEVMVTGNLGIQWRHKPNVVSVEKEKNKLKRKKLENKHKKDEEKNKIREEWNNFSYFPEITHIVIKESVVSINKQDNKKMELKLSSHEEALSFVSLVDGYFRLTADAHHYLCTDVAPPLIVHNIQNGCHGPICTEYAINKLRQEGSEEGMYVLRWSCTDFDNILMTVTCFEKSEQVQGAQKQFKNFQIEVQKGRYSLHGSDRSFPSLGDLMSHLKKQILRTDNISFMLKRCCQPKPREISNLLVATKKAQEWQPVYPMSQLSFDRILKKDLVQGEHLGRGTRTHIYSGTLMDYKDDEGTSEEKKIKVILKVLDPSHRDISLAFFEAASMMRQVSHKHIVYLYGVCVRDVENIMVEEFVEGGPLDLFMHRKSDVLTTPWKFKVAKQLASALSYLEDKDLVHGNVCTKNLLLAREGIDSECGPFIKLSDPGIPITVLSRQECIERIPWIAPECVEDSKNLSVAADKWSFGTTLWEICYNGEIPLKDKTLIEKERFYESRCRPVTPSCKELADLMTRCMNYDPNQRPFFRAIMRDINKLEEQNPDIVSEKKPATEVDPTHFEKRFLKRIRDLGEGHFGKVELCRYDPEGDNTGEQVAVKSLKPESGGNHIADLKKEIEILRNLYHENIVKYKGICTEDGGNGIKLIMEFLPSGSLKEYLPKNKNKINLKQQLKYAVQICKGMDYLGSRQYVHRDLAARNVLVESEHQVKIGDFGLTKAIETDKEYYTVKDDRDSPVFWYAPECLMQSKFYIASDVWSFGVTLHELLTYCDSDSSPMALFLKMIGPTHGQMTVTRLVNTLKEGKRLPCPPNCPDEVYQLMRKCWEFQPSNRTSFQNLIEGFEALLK
# Method: as §1, §2
# The reaction included 0.5 ng/μl JAK 1 protein kinase, 1 μM TK Substrate-biotin peptide substrate, 1.1 μM ATP, 1× enzymatic buffer, 5 mM MgCl2, 1 mM MnCl2, 1 mM DTT, and 2.5 nM SEB. The detection plate was White Proxiplate 384-Plus plate (PerkinElmer), and the mixture (10 μl) was reacted at room temperature for 60 minutes.
# as §4, §5
# [3] = target: T3, JAK2 (Homo sapiens, UniProt O60674); assay: In vitro JAK2 kinase activity assay (HTRF kinEASE TK); format: biochemical; set-up: purchased Carna Biosciences; conditions: 2.7 μM ATP, 25 minutes, room temperature; read-out: IC50 JAK2 (enzyme activity assay)
# T3 sequence (O60674 whole entry): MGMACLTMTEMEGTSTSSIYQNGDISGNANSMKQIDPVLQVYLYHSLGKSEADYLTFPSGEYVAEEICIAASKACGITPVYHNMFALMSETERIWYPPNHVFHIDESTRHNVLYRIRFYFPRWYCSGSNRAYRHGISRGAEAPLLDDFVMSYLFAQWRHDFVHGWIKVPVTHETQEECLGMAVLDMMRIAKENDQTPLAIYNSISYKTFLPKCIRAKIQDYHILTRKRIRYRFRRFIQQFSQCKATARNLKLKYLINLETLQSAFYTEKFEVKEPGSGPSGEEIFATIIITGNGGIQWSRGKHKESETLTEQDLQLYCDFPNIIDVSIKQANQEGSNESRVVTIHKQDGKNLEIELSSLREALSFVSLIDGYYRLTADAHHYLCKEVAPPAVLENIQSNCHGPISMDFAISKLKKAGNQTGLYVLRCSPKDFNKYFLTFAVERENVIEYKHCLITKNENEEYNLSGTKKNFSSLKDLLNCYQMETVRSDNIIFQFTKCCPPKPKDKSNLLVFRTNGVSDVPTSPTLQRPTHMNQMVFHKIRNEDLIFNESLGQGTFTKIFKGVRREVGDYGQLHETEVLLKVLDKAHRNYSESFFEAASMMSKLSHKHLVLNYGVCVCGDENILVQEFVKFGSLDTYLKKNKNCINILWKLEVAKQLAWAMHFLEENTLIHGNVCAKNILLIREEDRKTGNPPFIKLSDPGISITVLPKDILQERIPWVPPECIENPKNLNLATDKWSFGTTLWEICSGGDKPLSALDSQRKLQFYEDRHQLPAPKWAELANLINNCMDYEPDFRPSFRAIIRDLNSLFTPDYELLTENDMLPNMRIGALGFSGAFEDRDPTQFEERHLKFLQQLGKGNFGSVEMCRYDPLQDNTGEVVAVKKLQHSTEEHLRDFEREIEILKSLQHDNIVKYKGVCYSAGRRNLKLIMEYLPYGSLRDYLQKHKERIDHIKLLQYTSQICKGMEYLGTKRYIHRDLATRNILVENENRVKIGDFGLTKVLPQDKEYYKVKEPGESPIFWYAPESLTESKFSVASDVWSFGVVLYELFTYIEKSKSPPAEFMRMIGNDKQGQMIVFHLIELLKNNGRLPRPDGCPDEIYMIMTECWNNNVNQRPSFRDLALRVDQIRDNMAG
# Method: as §1, §2
# as §3, with “included 0.001 ng/μl” for “included 0.004 ng/gi”, “JAK 2” for “JAK 3”, “substrate, 2.7” for “substrate, 0.75”
# as §4, §5
# [4] = target: T2, JAK1; assay: Cellular JAK1 activity assay: IL-6-stimulated STAT3 phosphorylation in TF-1 cells; format: cell-based; set-up: endogenous in cells; host or cells: TF-1 cells (ATCC); conditions: IL-6 (30 ng/mL), pSTAT3, read-out: IC50 Cell JAK1
# Method: (§6) In TF-1 cells, IL-6 stimulation leads to phosphorylation of STAT3 through JAK1, while EPO stimulants phosphorylation of STAT5 via JAK2.
# (§7) TF-1 cells were obtained from American Type Culture Collection (ATCC). TF-1 cells were starved overnight (cell density was 100,000 cells/well at plating) in OptiMEM medium without phenol red containing 0.5% fetal bovine serum (FBS), 0.1 mM non-essential amino acids (NEAA), 1 mM sodium pyruvate at 37° C. The compound was serially diluted in DMSO, added to TF-1 cells and incubated at 37° C. for 20 minutes. The final concentration of DMSO was 0.2%. Then, human recombinant cytokine IL-6 (30 ng/mL) or EPO (10 U/mL) was added to the wells containing TF-1 cells. After the cell plate was incubated for 30 minutes, cells were lysed, and the phosphorylation of STAT3 (IL-6) or STAT5 (EPO) in the cell lysate (pSTAT3/total STAT3 Elisa Kit: CST #7300C/CST #7305C; pSTAT5 and total STAT5 Elisa Kit: Abcam #ab205715) was measured. The IC50 value was determined as the concentration of the compound required to inhibit STAT phosphorylation by 50% relative to the measured DMSO control.
# [5] = target: T3, JAK2; assay: Cellular JAK2 activity assay: EPO-stimulated STAT5 phosphorylation in TF-1 cells; format: cell-based; set-up: endogenous in cells; host or cells: TF-1 cells (ATCC); conditions: EPO (10 U/mL), pSTAT5, read-out: IC50 Cell JAK2
# Method: as §6, §7
SMILES,IC50 [1],IC50 [2],IC50 [3],IC50 [4],IC50 [5]
"CCC(C(=O)Nc1nccc2c(-c3nc(Nc4cccc(S(C)(=O)=O)c4F)ncc3C)c[nH]c12)N1CCN(C)CC1 (stereo in doubt) [Example 20, (S)—N-(3-(2-((2-Fluoro-3-(methylsulfonyl)phenyl)amino)-5-methylpyrimidin-4-yl)-1H-pyrrolo[2,3-c]pyridin-7-yl)-2-(4-methylpiperazin-1-yl)butanamide]",500 to 10000 nM,5 to 50 nM,100 to 10000 nM,–,–
"CCC(C(=O)Nc1nccc2c(-c3nc(Nc4cn(C)nc4OC)ncc3F)c[nH]c12)N1CCN(C)CC1 (centres unmarked) [Example 17, N-(3-(5-Fluoro-2-((3-methoxy-1-methyl-1H-pyrazol-4-yl)amino)pyrimidin-4-yl)-1H-pyrrole[2,3-c]pyridin-7-yl)-2-(4-methylpiperazin-1-yl)butanamide]",< 500 nM,< 5 nM,100 to 10000 nM,–,–
CCC(C(=O)Nc1nccc2c(-c3nc(Nc4cn(C)nc4OC)ncc3C)c[nH]c12)N1CCC(N(C)C)CC1 (centres unmarked) [Example 9],< 500 nM,5 to 50 nM,< 100 nM,100 to 1000 nM,< 10000 nM
"CCC(C(=O)Nc1nccc2c(-c3nc(Nc4cccc(S(C)(=O)=O)c4F)ncc3C)c[nH]c12)N1CC2CCC(C1)N2C (centres unmarked) [Example 23, N-(3-(2-((2-Fluoro-3-(methylsulfonyl)phenyl)amino)-5-methylpyrimidin-4-yl)-1H-pyrrolo[2,3-c]pyridin-7-yl)-2-(8-methyl-3,8-diazabicyclo[3.2.1]octane-3-yl)butanamide]",500 to 10000 nM,5 to 50 nM,100 to 10000 nM,100 to 1000 nM,10000 to 20000 nM
COc1nn(C)cc1Nc1ncc(C)c(-c2c[nH]c3c(NC(N)=O)nccc23)n1 [Example 12],< 500 nM,< 5 nM,< 100 nM,< 100 nM,< 10000 nM
"Cc1cnc(Nc2cccc(S(C)(=O)=O)c2F)nc1-c1c[nH]c2c(NC(=O)NC(C)C)nccc12 [Example 30, 1-(3-(2-((2-Fluoro-3-(methylsulfonyl)phenyl)amino)-5-methylpyrimidin-4-yl)-1H-pyrrolo[2,3-c]pyridin-7-yl)-3-isopropylurea]",< 500 nM,5 to 50 nM,100 to 10000 nM,< 100 nM,10000 to 20000 nM
"CCC(C(=O)Nc1nccc2c(-c3nc(Nc4cccc(NS(C)(=O)=O)c4F)ncc3C)c[nH]c12)N1CCN(C)CC1 (centres unmarked) [Example 22, N-(3-(2-((2-Fluoro-3-(methylsulfonylamino)phenyl)amino)-5-methylpyrimidin-4-yl)-1H-pyrrolo[2,3-c]pyridin-7-yl)-2-(4-methylpiperazin-1-yl)butanamide]",500 to 10000 nM,5 to 50 nM,< 100 nM,100 to 1000 nM,< 10000 nM
CCC(C(=O)Nc1nccc2c(-c3nc(Nc4cn(C)nc4OC)ncc3C)c[nH]c12)N1CCC(O)C1 (centres unmarked) [Example 8],< 500 nM,5 to 50 nM,< 100 nM,100 to 1000 nM,> 20000 nM
"CCC(C(=O)Nc1nccc2c(-c3nc(Nc4cn(C)nc4OC)ncc3C)c[nH]c12)N1CCN(C2COC2)CC1 (centres unmarked) [Example 18, N-(3-(2-((3-Methoxy-1-methyl-1H-pyrazol-4-yl)amino)-5-methylpyrimidin-4-yl)-1H-pyrrolo[2,3-c]pyridin-7-yl)-2-(4-(oxbutan-3-yl)piperazin-1-yl)butanamide]",< 500 nM,< 5 nM,100 to 10000 nM,–,–
"COc1nn(C)cc1Nc1ncc(C)c(-c2c[nH]c3c(Nc4cn(C)nc4OC)nccc23)n1 [Example 5, N-(3-Methoxy-1-methyl-1H-pyrazol-4-yl)-3-(2-((3-methoxy-1-methyl-1H-pyrazole-4-yl)amino)-5-methylpyrimidin-4-yl)-1H-pyrrolo[2,3-c]pyridin-7-amine]",< 500 nM,5 to 50 nM,< 100 nM,100 to 1000 nM,> 20000 nM
"CC[C@@H](C(=O)Nc1nccc2c(-c3nc(Nc4cccc(S(C)(=O)=O)c4F)ncc3C)c[nH]c12)N1CC2CCC(C1)N2C [Example 26, (S)—N-(3-(2-((2-Fluoro-3-(methylsulfonyl)phenyl)amino)-5-methylpyrimidin-4-yl)-1H-pyrrolo[2,3-c]pyridin-7-yl)-2-(8-methyl-3,8-diazabicyclo[3.2.1]octane-3-yl)butanamide]",500 to 10000 nM,> 50 nM,100 to 10000 nM,–,–
"COc1nn(C)cc1Nc1nccc(-c2c[nH]c3c(NC(=O)[C@@H](C)N4CCN(C)CC4)nccc23)n1 [Example 1, (R)—N-(3-(2-((3-Methoxy-1-methyl-1H-pyrazol-4-yl)amino)pyrimidin-4-yl)-1H-pyrrolo[2,3-c]pyridin-7-yl)-2-(4-methylpiperazin-1-yl)propionamide]",500 to 10000 nM,> 50 nM,100 to 10000 nM,–,–
COc1nn(C)cc1Nc1ncc(C)c(-c2c[nH]c3c(NC(=O)C(C)(C)N4CCN(C)CC4)nccc23)n1 [Example 11],500 to 10000 nM,5 to 50 nM,100 to 10000 nM,–,–
"CCC(C(=O)Nc1ncnc2c(-c3nc(Nc4cccc(S(C)(=O)=O)c4F)ncc3C)c[nH]c12)N1CCN(C)CC1 (centres unmarked) [Example 29, N-(7-(2-((2-Fluoro-3-(methylsulfonyl)phenyl)amino)-5-methylpyrimidin-4-yl)-5H-pyrrolo[3,2-d]pyrimidin-4-yl)-2-(4-methylpiperazin-1-yl)butanamide]",500 to 10000 nM,> 50 nM,100 to 10000 nM,–,–
